Columns and labels:
[1] = test system: HepG2 cells derived from human liver cancer; experiment: EPO production in HepG2 cells (EPO ELISA of culture supernatant); type: cell-based; conditions: Homo sapiens; for activity at 3 µM: HepG2, 3 μM test compound, 48 hrs, 4% oxygen, non-stimulated state without compound = 100%, read-out: amount of EPO production, % of control (3 μM); for activity at 10 µM: HepG2, 48 h, final concentration 10 μM, non-stimulated state = 100%, read-out: enhancement of EPO production
Description: HepG2 cells derived from human liver cancer were inoculated in an amount of 5×10^4 cells per well on a 48-well plate, using minimum essential medium (MEM, Sigma-Aldrich Company) containing 10% bovine fetal serum. On the next day, the medium was exchanged with Dulbecco's modified eagle medium (DMEM (Sigma-Aldrich Company)) containing 10% bovine fetal serum without Phenol Red. Then, a test compound dissolved in DMSO was added thereto to obtain a final concentration of 3 μM or 10 μM, and the amount of medium was adjusted to 400 μL per well. The cells were incubated for 48 hrs in a CO2 incubator in which the oxygen concentration was adjusted to 4%, and then the culture supernatant was collected. The EPO concentration in the culture supernatant was immediately measured using an EPO ELISA kit (Roche Diagnostics GmbH). The method was carried out according to the operation manual.
The amount of EPO production in a non-stimulated state where no compounds were added, was designated as 100%, and the amount of EPO production (% of control) induced by each of the compounds was determined.

[2] = test system: K562 cells, a human proerythroblast cell line; experiment: Hemoglobin production in K562 cells (fluorescence of the porphyrin ring); type: cell-based; conditions: Homo sapiens, K562, 144 h; 6 μM test compound, 3 + 3 days incubation; non-stimulated state without compound = 100; read-out: amount of hemoglobin, % of control (6 μM)
Description: K562 cells (obtained from ATCC), which is a human proerythroblast cell line, were inoculated at a concentration of 1×10^5 cells/1 mL in each well of a 24-well plate, using complete medium (RPMI-1640 medium containing 10% bovine fetal serum), and 1 μL of a test compound at a 1000-fold concentration was added to each well. Subsequently, the cells were incubated for 3 days in a CO2 incubator (37° C., 5% CO2). The medium was exchanged, and the cells were further incubated for 3 days. The cells were collected and counted. Subsequently, the amount of hemoglobin produced in the cells was determined by adjusting the number of cells to 3×10^5 cells, and measuring the fluorescence of the porphyrin ring. That is, the cells collected by centrifugation were suspended in 500 μL of 2 M oxalic acid, and were heated to boil for 30 minutes. The cells were cooled, and then the fluorescence intensity was measured by using a fluorescence microplate reader (Spectra MAX GeminiEM; Molecular Devices Corp.) ([…]). The amount of hemoglobin in a non-stimulated state where no compound was added was designated as 100-, and the amount of hemoglobin (% of control) produced as induced by each of the compounds was determined.

SMILES | activity at 3 µM [1] [%] | activity at 6 µM [2] [%] | activity at 10 µM [1] [%]
CC(=O)N1c2ccc(C(=O)O)cc2C(Nc2ccc(-c3csc(C)n3)cc2)CC1C (stereo not shown) [Compound 163, 1-Acetyl-2-methyl-4-{[4-(2-methylthiazol-4-yl)-phenyl]amino}-1,2,3,4-tetrahydroquinoline-6-carboxylic acid] | 128 | 172 | –
CC(=O)N1c2ccc(C(=O)NCCOCCOCCOCCC(=O)OC(C)(C)C)cc2C(Nc2ccc(N3CCOCC3)cc2)CC1C (stereo not shown) [Compound 149, Tert-butyl 12-{1-Acetyl-2-methyl-4-[(4-morpholinophenyl)-amino]-1,2,3,4-tetrahydroquinoline-6-carboxamido}-4,7,10-trioxadodecanoate] | 190 | 367 | –
CC(=O)N1c2ccc(C(=O)NC(C)C)cc2C(Nc2ccc(N3CCOCC3)cc2)CC1C (stereo not shown) [Compound 176, 1-Acetyl-N-isopropyl-2-methyl-4-[(4-morpholinophenyl)-amino]-1,2,3,4-tetrahydroquinoline-6-carboxamide] | 325 | 355 | –
CNC(=O)c1ccc2c(c1)C(Oc1ccc(N3CCOCC3)cc1)CC(C)N2C(C)=O (stereo not shown) [Compound 140, 1-Acetyl-N,2-dimethyl-4-(4-morpholinophenoxy)-1,2,3,4-tetrahydroquinoline-6-carboxamide] | 124 | 231 | –
CNC(=O)c1ccc2c(c1)C(Nc1ccc(-c3cnns3)cc1)CC(C)N2C(C)=O (stereo not shown) [Compound 174, 1-Acetyl-N,2-dimethyl-4-{[4-(1,2,3-thiadiazol-5-yl)-phenyl]amino}-1,2,3,4-tetrahydroquinoline-6-carboxamide] | 218 | 163 | –
CNC(=O)c1ccc2c(c1)C(Nc1ccc(C3CCCCC3)cc1)CC(C)N2C(C)=O (stereo not shown) [Compound 146, 1-Acetyl-4-[(4-cyclohexylphenyl)-amino]-N,2-dimethyl-1,2,3,4-tetrahydroquinoline-6-carboxamide] | 152 | 208 | –
CC(=O)N1c2ccc(C(=O)O)cc2C(Nc2ccc(C3CCCCC3)cc2)CC1C (stereo not shown) [Compound 145, 1-Acetyl-4-[(4-cyclohexylphenyl)-amino]-2-methyl-1,2,3,4-tetrahydroquinoline-6-carboxylic acid] | – | 414 | 157
CC(=O)N1c2ccccc2C(Oc2ccc(NS(C)(=O)=O)cc2)CC1C (stereo not shown) [Compound 143, N-{4-[(1-acetyl-2-methyl-1,2,3,4-tetrahydroquinolin-4-yl)oxy]-phenyl}methanesulfonamide] | 130 | 396 | –
CC(=O)N1c2ccc(C(=O)O)cc2C(Nc2ccc(-c3ncco3)cc2)CC1C (stereo not shown) [Compound 168, 1-Acetyl-2-methyl-4-{[4-(oxazol-2-yl)phenyl]-amino}-1,2,3,4-tetrahydroquinoline-6-carboxylic acid] | 144 | 204 | –
COC(=O)CCCCCNC(=O)c1ccc2c(c1)C(Nc1ccc(Cl)cc1)CC(C)N2C(C)=O (stereo not shown) [Compound 158, Methyl 6-{1-acetyl-4-[(4-chloro-phenyl)amino]-2-methyl-1,2,3,4-tetrahydroquin-oline-6-carboxamido}-hexanoate] | – | 411 | 248
CC(=O)NC(=O)c1ccc2c(c1)C(Nc1ccc(N3CCOCC3)cc1)CC(C)N2C(C)=O (stereo not shown) [Compound 175, N,1-diacetyl-2-methyl-4-[(4-morpholinophenyl)amino]-1,2,3,4-tetrahydroquinoline-6-carboxamide] | 270 | 275 | –
CCOC(=O)c1ccc2c(c1)C(Nc1ccc(-c3ncco3)cc1)CC(C)N2C(C)=O (stereo not shown) [Compound 167, Ethyl 1-Acetyl-2-methyl-4-{[4-(oxazol-2-yl)phenyl]-amino}-1,2,3,4-tetrahydroquinoline-6-carboxylate] | – | 227 | 142
CC(=O)N1c2ccc(C(=O)O)cc2C(Nc2ccc(C3CCOCC3)cc2)CC1C (stereo not shown) [Compound 154, 1-Acetyl-2-methyl-4-{[4-(tetrahydro-2H-pyran-4-yl)-phenyl]amino}-1,2,3,4-tetrahydroquinoline-6-carboxylic acid] | 116 | 320 | –
CCOC(=O)c1ccc2c(c1)C(Nc1ccc(C3CCCCC3)cc1)CC(C)N2C(C)=O (stereo not shown) [Compound 144, Ethyl 1-Acetyl-4-[(4-cyclohexylphenyl)-amino]-2-methyl-1,2,3,4-tetrahydroquinoline-6-carboxylate] | 180 | 338 | –
CNC(=O)c1ccc2c(c1)C(Nc1ccc(-c3csc(C)n3)cc1)CC(C)N2C(C)=O (stereo not shown) [Compound 165, 1-Acetyl-N,2-dimethyl-4-{[4-(2-methylthiazol-4-yl)phenyl]amino}-1,2,3,4-tetrahydroquinoline-6-carboxamide] | – | 304 | 159
CC(=O)N1c2ccc(C(N)=O)cc2C(Nc2cccc(N3CCOCC3)c2)CC1C (stereo not shown) [Compound 181, 1-Acetyl-2-methyl-4-[(3-morpholinophenyl)amino]-1,2,3,4-tetrahydroquinoline-6-carboxamide] | 162 | 382 | –
CC(=O)N1c2ccc(C(=O)NC#N)cc2C(Nc2ccc(Cl)cc2)CC1C (stereo not shown) [Compound 128, 1-Acetyl-4-[(4-chlorophenyl)-amino]-N-cyano-2-methyl-1,2,3,4-tetrahydroquinoline-6-carboxamide] | 176 | 120 | –
CCOC(=O)c1ccc2c(c1)C(Nc1ccc(-c3cnns3)cc1)CC(C)N2C(C)=O (stereo not shown) [Compound 171, Ethyl 1-Acetyl-2-methyl-4-{[4-(1,2,3-thiadiazol-5-yl)-phenyl]amino}-1,2,3,4-tetrahydroquinoline-6-carboxylate] | 333 | 243 | –
CNC(=O)c1ccc2c(c1)C(Nc1ccc(N3CCOCC3)cc1)CC(C)N2C(C)=O (stereo not shown) [Compound 132, 1-Acetyl-4-[(4-morpholinophenyl)-amino]-N,2-dimethyl-1,2,3,4-tetrahydroquinoline-6-carboxamide] | 208 | 198 | –
CCOC(=O)c1ccc2c(c1)C(Nc1ccc(-c3csc(C)n3)cc1)CC(C)N2C(C)=O (stereo not shown) [Compound 162, Ethyl 1-Acetyl-2-methyl-4-{[4-(2-methylthiazol-4-yl)-phenyl]amino}-1,2,3,4-tetrahydroquinoline-6-carboxylate] | 284 | 316 | –
CC(=O)N1c2ccc(F)cc2C(Nc2ccc(C(=O)O)cc2)CC1C (stereo not shown) [Compound 137, 1-Acetyl-6-fluoro-4-[(4-carboxy-phenyl)amino]-2-methyl-1,2,3,4-tetrahydroquinoline] | 110 | 190 | –
CC(=O)N1c2ccc(C(=O)Nc3ccccc3)cc2C(Nc2ccc(Cl)cc2)CC1C (stereo not shown) [Compound 130, 1-Acetyl-4-[(4-chlorophenyl)-amino]-2-methyl-N-phenyl-1,2,3,4-tetrahydroquinoline-6-carboxamide] | 133 | 172 | –
CC(=O)N1c2ccc(C(=O)NN)cc2C(Nc2ccc(N3CCOCC3)cc2)CC1C (stereo not shown) [Compound 133, 1-Acetyl-4-[(4-morpholinophenyl)-amino]-2-methyl-1,2,3,4-tetrahydroquinoline-6-carbohydrazide] | 113 | 136 | –
CC(=O)N1c2ccc(C(=O)NCCO)cc2C(Nc2ccc(Cl)cc2)CC1C (stereo not shown) [Compound 126, 1-Acetyl-4-[(4-chlorophenyl)-amino]-N-(2-hydroxyethyl)-2-methyl-1,2,3,4-tetrahydroquinoline-6-carboxamide] | 161 | 124 | –
CC(=O)N1c2ccc(C(N)=O)cc2C(Nc2ccc(-c3ncco3)cc2)CC1C (stereo not shown) [Compound 169, 1-Acetyl-2-methyl-4-{[4-(oxazol-2-yl)phenyl]amino}-1,2,3,4-tetrahydroquinoline-6-carboxamide] | – | 243 | 120
CC(=O)N1c2ccc(C(=O)Nc3ccccn3)cc2C(Nc2ccc(N3CCOCC3)cc2)CC1C (stereo not shown) [Compound 177, 1-Acetyl-2-methyl-4-[(4-morpholinophenyl)-amino]-N-(pyridin-2-yl)-1,2,3,4-tetrahydroquinoline-6-carboxamide] | 265 | 353 | –

— US9045423B2, “Prophylactic and/or therapeutic agent for anemia comprising tetrahydroquinoline compound as active ingredient” (KOWA COMPANY, LTD., priority 2009, dated 2015)
